Consider 17 molecules from PubChem BioAssay AID328 (DTP/NCI, 2004).

The assay relates to BDF1 mice, P388 leukemia ip, median survival T/C. Kind of assay: NCI In Vivo Anticancer Drug Screen. Data for tumor model P388 Leukemia (intraperitoneal) in B6D2F1 (BDF1) mice. To be noted: endpoint: median survival time, higher = longer survival. An outline of the steps: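 Antitumour effect was judged in vivo: survival in drug-treated mice, normalised to that of vehicle-dosed controls, gives the reported T/C.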

Setting [1] is: dose: 100.0 mg/kg/injection, schedule: Q01DX009 (ip), vehicle: Klucel (hydroxypropylcellulose) (HPC).
[2] abbreviates: dose: 200.0 mg/kg/injection, schedule: Q01DX009 (ip), vehicle: Klucel (hydroxypropylcellulose) (HPC).
Setting [3] is: dose: 200.0 mg/kg/injection, schedule: Q04DX003 (ip), vehicle: saline with Tween-80.
[4] abbreviates: dose: 50.0 mg/kg/injection, schedule: Q01DX009 (ip), vehicle: saline with Tween-80.
The mark [5] stands for this setting: dose: 100.0 mg/kg/injection, schedule: Q01DX009 (ip), vehicle: saline with Tween-80.
Where [6] appears, read: dose: 100.0 mg/kg/injection, schedule: Q04DX003 (ip), vehicle: saline with Tween-80.
[7] abbreviates: dose: 50.0 mg/kg/injection, schedule: Q01DX009 (ip), vehicle: Klucel (hydroxypropylcellulose) (HPC).
The mark [8] stands for this setting: dose: 100.0 mg/kg/injection, schedule: Q04DX003 (ip), vehicle: saline.
The mark [9] stands for this setting: dose: 200.0 mg/kg/injection, schedule: Q04DX003 (ip), vehicle: saline.
[10] abbreviates: dose: 200.0 mg/kg/injection, schedule: Q01DX009 (ip), vehicle: saline with Tween-80.

Where “and” joins values, the source holds several entries; their conditions need not be identical. Equal entries are not always repeated. Toxic doses and inconclusive results are not listed.

For the molecule `CC[N+](CC)(CC)CCCC[N+](CC)(CC)CC`, the T/C runs as follows: (dose: 12.5 mg/kg/injection, schedule: Q01DX009 (ip), vehicle: water) 97 % of control; (dose: 25.0 mg/kg/injection, schedule: Q01DX009 (ip), vehicle: water) 95 % of control; (dose: 25.0 mg/kg/injection, schedule: Q04DX003 (ip), vehicle: water) 109 % of control; (dose: 50.0 mg/kg/injection, schedule: Q01DX009 (ip), vehicle: water) 100 % of control; (dose: 50.0 mg/kg/injection, schedule: Q04DX003 (ip), vehicle: water) 104 % of control.
With `[Cl][Hg][CH]1CCCC2OC(C(Cl)(Cl)Cl)OC21` (centres undefined), the T/C runs as follows: (dose: 0.2 mg/kg/injection, schedule: Q01DX001 (ip), vehicle: saline with Tween-80) 111 % of control; (dose: 0.4 mg/kg/injection, schedule: Q01DX001 (ip), vehicle: saline with Tween-80) 109 % of control; (dose: 0.78 mg/kg/injection, schedule: Q01DX001 (ip), vehicle: saline with Tween-80) 101 % of control; (dose: 0.8 mg/kg/injection, schedule: Q01DX001 (ip), vehicle: saline with Tween-80) 109 % of control; (dose: 1.6 mg/kg/injection, schedule: Q01DX001 (ip), vehicle: saline with Tween-80) 116 % of control.
Regarding `Cc1nc(Cl)c(C#N)c(C)c1Cl`, the T/C is 97 % of control (dose: 50.0 mg/kg/injection, schedule: Q01DX005 (ip), vehicle: saline with Tween-80); 92 % of control (dose: 100.0 mg/kg/injection, schedule: Q01DX005 (ip), vehicle: saline with Tween-80); 94 % of control (dose: 200.0 mg/kg/injection, schedule: Q01DX005 (ip), vehicle: saline with Tween-80).
In the case of `O=C1c2ccccc2C(=O)c2c(NCCCCCO)ccc(NCCCCCO)c21`, the T/C is, setting by setting: (dose: 25.0 mg/kg/injection, schedule: Q01DX009 (ip), vehicle: other) 88 % of control; (dose: 100.0 mg/kg/injection, schedule: Q01DX009 (ip), vehicle: other) 88 % of control.
As to `CC(C)OC(CCC#N)c1ccccc1` (centres undefined), the T/C was 100 % of control under setting [1]; 95 % of control (dose: 100.0 mg/kg/injection, schedule: Q04DX003 (ip), vehicle: Klucel (hydroxypropylcellulose) (HPC)); 100 % of control under setting [2]; 104 % of control (dose: 200.0 mg/kg/injection, schedule: Q04DX003 (ip), vehicle: Klucel (hydroxypropylcellulose) (HPC)); 109 % of control (dose: 400.0 mg/kg/injection, schedule: Q04DX003 (ip), vehicle: Klucel (hydroxypropylcellulose) (HPC)).
Take `CCCCNC(C)(C)C(SSSC(c1ccco1)C(C)(C)NCCCC)c1ccco1` (centres undefined): the T/C by setting is: (dose: 50.0 mg/kg/injection, schedule: Q04DX003 (ip), vehicle: saline with Tween-80) 115 % of control; under setting [3], 120 % of control.
With `C=CCN1/C(=C/C=C\c2sc3ccccc3[n+]2CC=C)Sc2ccccc21`, the T/C was 100 % of control (dose: 0.12 mg/kg/injection, schedule: Q01DX009 (ip), vehicle: saline); 175 % of control (dose: 0.25 mg/kg/injection, schedule: Q04DX003 (ip), vehicle: Klucel (hydroxypropylcellulose) (HPC)); 115 % of control (dose: 0.5 mg/kg/injection, schedule: Q04DX003 (ip), vehicle: Klucel (hydroxypropylcellulose) (HPC)); 154 % of control (dose: 1.0 mg/kg/injection, schedule: Q01DX009 (ip), vehicle: saline); 123 % of control (dose: 1.0 mg/kg/injection, schedule: Q01DX010 (ip), vehicle: saline); 110 % of control (dose: 1.0 mg/kg/injection, schedule: Q04DX003 (ip), vehicle: Klucel (hydroxypropylcellulose) (HPC)). The T/C runs as follows: (dose: 63.0 micrograms/kg/injection, schedule: Q01DX010 (ip), vehicle: saline) 90 % of control; (dose: 125.0 micrograms/kg/injection, schedule: Q01DX010 (ip), vehicle: saline) 90 % of control; (dose: 250.0 micrograms/kg/injection, schedule: Q01DX010 (ip), vehicle: saline) 90 % of control.
As for `BrC1C2CC3C(C2)C13` (centres undefined), the T/C is 100 % of control under setting [1]; 86 % of control under setting [2]; 109 % of control (dose: 400.0 mg/kg/injection, schedule: Q01DX009 (ip), vehicle: Klucel (hydroxypropylcellulose) (HPC)).
`c1ccc(-c2cc3c(N4CCOCC4)nnc(N4CCOCC4)c3cn2)cc1`: the T/C is, setting by setting: under setting [4], 89 % of control; under setting [5], 86 % of control.
As for `CCCCOC(=O)c1ccc(NC(=O)Nc2ccccc2OC)cc1`, the T/C under setting [6] is 100 % of control.
For `O=C(O)c1onc2ccccc12`, the T/C reads like this: (dose: 100.0 mg/kg/injection, schedule: Q01DX001 (ip), vehicle: saline with Tween-80) 113 % of control; (dose: 200.0 mg/kg/injection, schedule: Q01DX001 (ip), vehicle: saline with Tween-80) 90 % of control.
On to `CCSc1ncc2cnccn12`, for which the T/C is 108 % of control (dose: 0.37 mg/kg/injection, schedule: Q01DX009 (ip), vehicle: water); 111 % of control and 112 % of control (dose: 0.75 mg/kg/injection, schedule: Q01DX009 (ip), vehicle: water); 102 % of control (dose: 1.0 mg/kg/injection, schedule: Q01DX009 (ip), vehicle: water); 112 % of control and 117 % of control and 120 % of control (dose: 1.5 mg/kg/injection, schedule: Q01DX009 (ip), vehicle: water); 94 % of control and 105 % of control (dose: 2.0 mg/kg/injection, schedule: Q01DX009 (ip), vehicle: water); 100 % of control (dose: 3.12 mg/kg/injection, schedule: Q04DX003 (ip), vehicle: water). The T/C by setting is: (dose: 4.0 mg/kg/injection, schedule: Q01DX009 (ip), vehicle: water) 94 % of control and 100 % of control; (dose: 5.0 mg/kg/injection, schedule: Q01DX009 (ip), vehicle: water) 91 % of control; (dose: 6.0 mg/kg/injection, schedule: Q01DX009 (ip), vehicle: water) 88 % of control and 104 % of control; (dose: 6.25 mg/kg/injection, schedule: Q04DX003 (ip), vehicle: water) 100 % of control; (dose: 12.5 mg/kg/injection, schedule: Q04DX003 (ip), vehicle: water) 102 % of control; (dose: 16.0 mg/kg/injection, schedule: Q01DX009 (ip), vehicle: water) 89 % of control.
With `COCCCNC1=C(Cl)C(=O)c2ccccc2C1=O`, the T/C by setting is: under setting [7], 106 % of control; under setting [1], 113 % of control; under setting [2], 109 % of control.
For the molecule `CCOC(=O)/C(=C\c1ccc2c(c1)OCO2)NC(=O)c1ccccc1`, the T/C is 104 % of control (dose: 100.0 mg/kg/injection, schedule: Q01DX001 (ip), vehicle: Klucel (hydroxypropylcellulose) (HPC)); 112 % of control under setting [8]; 100 % of control (dose: 200.0 mg/kg/injection, schedule: Q01DX001 (ip), vehicle: Klucel (hydroxypropylcellulose) (HPC)); 95 % of control under setting [9]; 100 % of control (dose: 400.0 mg/kg/injection, schedule: Q01DX001 (ip), vehicle: Klucel (hydroxypropylcellulose) (HPC)); 95 % of control (dose: 400.0 mg/kg/injection, schedule: Q04DX003 (ip), vehicle: saline).
As for `CCCC(Nc1nccs1)Nc1nccs1`, the T/C runs as follows: under setting [4], 107 % of control; under setting [5], 101 % of control; under setting [10], 101 % of control.
On to `COC(OC)c1[nH]c(=S)[nH]c(=O)c1Cc1c(Cl)cccc1Cl`, for which the T/C reads like this: under setting [6], 104 % of control; under setting [3], 104 % of control; (dose: 400.0 mg/kg/injection, schedule: Q04DX003 (ip), vehicle: saline with Tween-80) 100 % of control.
In the case of `CCS(=O)(=O)OCCCl`, the T/C (dose: 25.0 mg/kg/injection, schedule: Q01DX009 (ip), vehicle: Klucel (hydroxypropylcellulose) (HPC)) is 100 % of control; the T/C (dose: 44.0 mg/kg/injection, schedule: Q01DX009 (ip), vehicle: saline) is 104 % of control; the T/C under setting [7] is 100 % of control; the T/C under setting [4] was 103 % of control; the T/C (dose: 50.0 mg/kg/injection, schedule: Q01DX009 (ip), vehicle: saline) is 161 % of control; the T/C (dose: 66.0 mg/kg/injection, schedule: Q01DX009 (ip), vehicle: saline) is 108 % of control. In addition, the T/C reads like this: under setting [1], 105 % of control; under setting [5], 104 % of control; (dose: 100.0 mg/kg/injection, schedule: Q01DX009 (ip), vehicle: saline) 230 % of control and 95 % of control and 108 % of control; under setting [8], 100 % of control; (dose: 150.0 mg/kg/injection, schedule: Q01DX009 (ip), vehicle: saline) 120 % of control; under setting [10], 116 % of control. For the same molecule, under setting [9], the T/C was 91 % of control.
